Laboratory results published in patent US8338482B2, “Modulating notch1 signaling pathway for treating neuroendocrine tumors” (Wisconsin Alumni Research Foundation, priority 2007, dated 2012).

Tests used:
[1] = Serum VPA level in xenograft mice; format: in vivo; conditions: nude athymic NU/NU, mouse, ip, two hours after i.p. injection, last day, 366 mg/kg, read-out: median serum VPA level
Protocol: After confirming that VPA activates Notch1 signaling and suppresses carcinoid cell growth in vitro, we were interested in testing its efficacy in vivo. Subcutaneous human GI carcinoid tumors were developed in immunocompromised mice, which were then given daily intraperitoneal injections of VPA, and the tumors were measured every 4 days for 20 days. The tumors of the saline-treated control mice grew at a higher rate than did those of the VPA-treated animals (FIG. 28A). Indeed, the growth of the tumors in the treatment group was almost static. On the last day of the experiment, blood was drawn from each animal in the treatment group two hours after intraperitoneal injection of VPA.

BON cells = experiment: Subcutaneous GI carcinoid xenograft study; format: in vivo, mice; conditions: 366 mg/kg daily i.p., 20 days
Protocol: Xenograft Studies BON cells (1×10^6) were suspended in Hanks' balanced salt solution (Invitrogen) and injected subcutaneously into the right flank of 12 male nude athymic NU/NU mice (Charles River Laboratories, Wilmington, Mass.) under anesthesia. After palpable tumors developed, the mice were divided into 2 groups of 6 animals. The control group received daily intraperitoneal (i.p.) injections of saline while the treatment group received daily i.p. injections of VPA (366 mg/kg) for 20 days. The length and width of tumors were measured with a vernier caliper every 4 days and tumor volumes were calculated using the formula, volume=width^2×length×0.52. At the end of the experiment the mice were sacrificed and the tumors were resected and frozen in liquid nitrogen. Whole tumor cell protein lysates were prepared for immunoblotting as previously described (Vaccaro A et al., In-vivo activation of Raf-1 inhibits tumor growth and development in a xenograft model of human medullary thyroid cancer. Anticancer Drugs 2006; 17:849-853). This experiment was performed in accordance with the protocols of the University of Wisconsin Medical School Animal Care and Use Committee.

ASCL1 promoter = ASCL1 promoter luciferase reporter assay; format: cell-based, human; conditions: GI carcinoid cells, VPA 48 hours
[2] = tested on: H727 human lung carcinoid cancer cells; experiment: Western blot analysis of pulmonary carcinoid cells; format: cell-based

CCCC(CCC)C(=O)O [VPA, 2-propylpentanoic acid]
concentration at 2 h [1]: 46000 ng/mL | growth of the tumors (BON cells): almost static | neurotoxicity (BON cells): no signs of neurotoxicity | expression of ASCL1 in resected tumors (BON cells; Western blot): decreased expression | decrease in ASCL1 promoter luciferase activity (ASCL1 promoter): ~4 fold | ASCL1 protein ([2]; VPA): dose-dependent decrease | full-length Notch1 and NICD ([2]; VPA 0-4 mM, 2 days): increase | ASCL1 protein ([2]; VPA 4 mM, 2 days): undetectable levels | protein levels of CgA ([2]; VPA, two days): decreased
